Entries after “also recorded” stand apart in the source; their conditions may differ. One block for each molecule: values may come before it. Square brackets hold non-standard residues; d marks the D form. Ends that are not written are not given here. Peptide text beside a SMILES is read from it. GABA = NCCCC(=O)O
How the values were obtained:
[1] = Tissue distribution and gamma camera imaging in nude mice bearing LS174T tumors; conditions: athymic NCr nude, mouse, iv, total radioactivity, 24 h postinjection, mean ± SD, n = 5; for tissue uptake at 24 h: Biodistribution
Description: Tissue Distribution Studies
(§1) The ability of ^99MTc-TP3654 to detect human colorectal carcinoma was examined in nude mice.
(§2) Human colorectal cancer cells LS 174T (ATCC) were grown in culture and 5×10^6 viable cells were implanted intramuscularly in the right thighs of athymic NCr nude mice that weighed 20-25 g. Tumors were grown to no more than 1 cm in diameter. Each animal received approximately 700 Ci of ^99mTc-TP3654 (1450 Ci/mrnol) in 200 1, of saline through a lateral tail vein. Exact activity injected was determined by measuring the syringe, before and after injection, in a calibrated ionization chamber (Capintech, Ramsey, N.J.). A suitable standard of ^99mTc was prepared at the time of injection.
(§3) At 4 or 24 h later, animals were killed and imaged using a GE STARCAM gamma camera (Milwaukee, Wis.) equipped with a low-energy parallel-hole collimator and a dedicated computer. Tissues were dissected and weighed, and associated radioactivity was counted (Packard 5000 series gamma counter), along with a standard, in duplicate. Results were calculated as percentage injected dose per gram of tissue (% ID/g) and were analyzed by using Student t test.
(§4) A tissue distribution study was performed in a manner similar to that for ^99mTc-TP3654.
(§5) For animal tissue distribution studies, a protocol similar to that for ^99mTc-TP3654 was followed.

[2] = test system: LS174T human colorectal tumor; assay: as above; conditions: for delineation of tumor in gamma camera image: nude mice bearing LS174T tumor in right thigh, 24 h after injection
Description: Tissue Distribution Studies
as §1, §2, §3, §4, §5

VIP receptor = assay: Receptor blocking with unlabeled VIP-28 or TP3654 in LS174T tumor-bearing nude mice; assay type: in vivo; conditions: 50 μg unlabeled peptide intravenously 30 min before tracer, 24 h, vs not pretreated mice
Description: Receptor Blocking […] Mice were killed 24 h later, and percentage injected dose per gram of tissues was determined. Data were compared to 24 h distribution in mice (n=5) given 700 μCi ^99mTc-TP3654 but not pretreated with unlabeled VIP or TP3654.

[3] = parameters: species or system Sprague-Dawley rats; conditions: Sprague-Dawley, rat, in vivo, iv
Description: Blood Clearance in Rats Three Sprague-Dawley rats, each weighing approximately 250 g, were injected through a lateral tail vein with 1 mCi ^99mTcTP3654 and serial blood samples were drawn, in triplicate, through the other lateral tail vein at 1, 5, 10, 15 and 30 min and then at 1, 2, 4, 6, 18 and 24 h. Blood samples were weighed, radioactivity was counted with a standard ^99mTc solution prepared at the time of injection and the percentage injected dose per gram of blood was plotted as a function of time.

[4] = assay type: physicochemical
Description: Stability of ^99mTc-TP3654 To measure the in vitro stability of ^99mTc-TP3654, a known quantity of the preparation was incubated at 37° C. for 24 h, with 100 molar excess of DTPA, HSA or cysteine. At 0, 5 and 24 h, samples were withdrawn for HPLC analysis and the radioactivity that was associated with the challenging agent and that remained as ^99mTc-TP3654 (Rt=11.8 min) was measured.

[5] = test system: LS174T human colorectal tumor; conditions: athymic NCr nude, mouse, in vivo, iv, 24 h
Description: Tissue Distribution Studies
as §1, §2, §3, §4, §5

in vivo [6] = conditions: athymic NCr nude, mouse, iv, total radioactivity; for tissue uptake at 4 h / tissue uptake at 24 h: Biodistribution
Description: Tissue Distribution Studies
as §1, §2, §3, §4, §5

in vivo [7] = conditions: rat, total radioactivity
[8] = test system: internal anal sphincter (IAS) smooth muscle; assay: Functional assay using opossum internal anal sphincter smooth muscle strips (fall in resting tension); assay type: tissue-based, opossums (Didelphis virginiana); conditions: at 10^−6 mol/L; 100% = maximal relaxation with 5 mmol/L EDTA
colonic adenocarcinoma = conditions: cited from earlier work

tissue uptake at 24 h ([1]; blood, nude mice bearing LS174T tumors): 0.03 %ID/g
tissue uptake at 24 h ([1]; heart, nude mice bearing LS174T tumors): 0.01 %ID/g
tissue uptake at 24 h ([1]; kidney, nude mice bearing LS174T tumors): 0.2 ± 0.02 %ID/g
tissue uptake at 24 h ([1]; liver, nude mice bearing LS174T tumors): 0.16 ± 0.02 %ID/g
tissue uptake at 24 h ([1]; lung, nude mice bearing LS174T tumors): 0.03 %ID/g
tissue uptake at 24 h ([1]; muscle, nude mice bearing LS174T tumors): 0.01 %ID/g
tissue uptake at 24 h ([1]; small intestine, nude mice bearing LS174T tumors): 0.03 ± 0.01 %ID/g
tissue uptake at 24 h ([1]; spleen, nude mice bearing LS174T tumors): 0.06 ± 0.03 %ID/g
tissue uptake at 24 h ([1]; tumor, LS174T tumor, nude mice): 0.03 %ID/g
tissue to tissue ratio at 24 h ([1]; tumor/blood, T/B ratio (tumor-to-blood), nude mice bearing LS174T tumors): 0.77 ± 0.03
tissue to tissue ratio at 24 h ([1]; tumor/muscle, T/M ratio (tumor-to-muscle), nude mice bearing LS174T tumors): 1.88 ± 0.36
Biodistribution, Kidney ([2]; kidney, 24 h postinjection, nude mice bearing LS174T tumors, mean ± SD, n = 5): 0.2±0.02 % ID/g
Molecule: C[C@@H](NC(=O)CN)C(=O)NCC(=O)NCC(=O)NCCCC(=O)O [^99mTc-G(D)AGG-Aba, metal not drawn] (H-G[dA]GG[GABA]-OH; N-terminus and C-terminus assumed)
delineation of tumor in gamma camera image [2]: not delineated
delineation of tumor in gamma camera image ([2]; listed as 99mTc-G(D)AGG): not

blood clearance α-t 1/2 [3]: approximately 5 min
blood clearance β-t½ [3]: approximately 120 min
stability on storage (HPLC) [4]: stable for up to 24 h
radioactivity displaced by challenge with 100 molar excess of DTPA, HSA or cysteine ([4]; 24 h of incubation at 37° C.): approximately 11%
Biodistribution, Tumor [5]: 0.23 ± 0.13 % ID/g
tissue uptake at 4 h (in vivo [6]; Blood): 0.21 ± 0.02 %ID/g
tissue uptake at 24 h (in vivo [6]; Blood): 0.12 ± 0.02 %ID/g
tissue uptake at 4 h (in vivo [6]; Heart): 0.1 %ID/g
tissue uptake at 24 h (in vivo [6]; Heart): 0.06 ± 0.01 %ID/g
tissue uptake at 4 h (in vivo [6]; Kidney): 19 ± 3.75 %ID/g
tissue uptake at 24 h (in vivo [6]; Kidney): 3.52 ± 0.4 %ID/g
tissue uptake at 4 h (in vivo [6]; Liver): 1.12 ± 0.08 %ID/g
tissue uptake at 24 h (in vivo [6]; Liver): 0.33 ± 0.04 %ID/g
tissue uptake at 4 h (in vivo [6]; Lung): 0.17 ± 0.01 %ID/g
tissue uptake at 24 h (in vivo [6]; Lung): 0.16 ± 0.09 %ID/g
tissue uptake at 4 h (in vivo [6]; Muscle): 0.09 ± 0.01 %ID/g
tissue uptake at 24 h (in vivo [6]; Muscle): 0.04 ± 0.01 %ID/g
tissue uptake at 4 h (in vivo [6]; Small intestine): 0.18 ± 0.05 %ID/g
tissue uptake at 24 h (in vivo [6]; Small intestine): 0.05 ± 0.01 %ID/g
tissue uptake at 4 h (in vivo [6]; Spleen): 0.19 ± 0.05 %ID/g
tissue uptake at 24 h (in vivo [6]; Spleen): 0.11 ± 0.02 %ID/g
tissue uptake at 4 h (in vivo [6]; Tumor): 0.24 ± 0.06 %ID/g
tissue uptake at 24 h (in vivo [6]; Tumor): 0.2 %ID/g
tissue to tissue ratio at 4 h (in vivo [6]; T/B ratio (tumor-to-blood)): 1.16 ± 0.29
tissue to tissue ratio at 24 h (in vivo [6]; T/B ratio (tumor-to-blood)): 1.98 ± 1.44
tissue to tissue ratio at 4 h (in vivo [6]; T/M ratio (tumor-to-muscle)): 2.73 ± 1.09
tissue to tissue ratio at 24 h (in vivo [6]; T/M ratio (tumor-to-muscle)): 6.28 ± 3.09
tissue uptake at 4 h (in vivo [7]): 0.73 ± 0.12 %ID/g
Molecule: CC[C@H](C)[C@H](NC(=O)[C@H](CO)NC(=O)[C@H](CC(N)=O)NC(=O)[C@H](CC(C)C)NC(=O)[C@H](Cc1ccc(O)cc1)NC(=O)[C@H](CCCCN)NC(=O)[C@H](CCCCN)NC(=O)[C@@H](NC(=O)[C@H](C)NC(=O)[C@H](CCSC)NC(=O)[C@H](CCC(N)=O)NC(=O)[C@H](CCCCN)NC(=O)[C@H](CCCNC(=N)N)NC(=O)[C@H](CC(C)C)NC(=O)[C@H](CCCNC(=N)N)NC(=O)[C@@H](NC(=O)[C@H](Cc1ccc(O)cc1)NC(=O)[C@H](CC(N)=O)NC(=O)[C@H](CC(=O)O)NC(=O)[C@@H](NC(=O)[C@H](Cc1ccccc1)NC(=O)[C@@H](NC(=O)[C@H](C)NC(=O)[C@H](CC(=O)O)NC(=O)[C@H](CO)NC(=O)[C@@H](N)Cc1c[nH]cn1)C(C)C)[C@@H](C)O)[C@@H](C)O)C(C)C)C(=O)N[C@@H](CC(C)C)C(=O)N[C@@H](CC(N)=O)C(=O)NCCCC(=O)NCC(=O)NCC(=O)N[C@H](C)C(=O)NCC(=O)O [^99mTc-TP3654, metal not drawn]
uptake of ^99mTc-TP3654 after pretreatment with unlabeled TP3654 or VIP (VIP receptor): decreased in all VIP receptor-rich tissues except the kidneys
delineation of tumor in gamma camera image [2]: delineates the tumor and both kidneys; also recorded: clearly delineated

Molecule: CPTA-VIP: VIP conjugated with the chelating agent CPTA, [4-(1,4,8,11-tetraazacyclotetradec-1-yl)methyl] benzoic acid (HSDAVFTDNYTRLRKQMAVKKYLNSILN; ends and bridges not checked; also: conjugated with chelator CPTA, position not given here; UniProt P01282 125-152, looked up)
muscle relaxivity (fall in resting IAS tension) [8]: 35%

Molecule: I-123 labeled VIP: I-123 labeled vasoactive intestinal peptide (VIP)
positive scans in patients with colonic adenocarcinoma (colonic adenocarcinoma; 17 patients): 17 out of 17
lung uptake (colonic adenocarcinoma; human, in vivo): approximately 25%
effectiveness in imaging colorectal adenocarcinoma (colonic adenocarcinoma; patients): 100%
effectiveness in imaging in patients with liver metastases (colonic adenocarcinoma; patients): 83%
imaging of lung metastases (colonic adenocarcinoma; patients): 66%

— patent US6395255B1, “Radiolabeled vasoactive intestinal peptide analogs for imaging and therapy” (Thomas Jefferson University, priority 1998, dated 2002)
